In patent US10259810B2, “N-sulfonylated pyrazolo[3,4-b]pyridin-6-carboxamides and method of use” (AbbVie S.à.r.l., priority 2015, dated 2019):

Columns and labels:
ΔF508-CFTR [1] = biological target: T1, ΔF508-CFTR (Homo sapiens, UniProt P13569, DEL508-508); test: CFTR cell surface levels using HRP-tagged ΔF508-CFTR expressing CFBE cells, intrinsic corrector capacity; assay type: cell-based; set-up: % Activation: concentration or dose not given beside the values; settings: HRP-tagged ΔF508-CFTR expressing CFBE41o- cells, compound alone (intrinsic corrector capacity), 20 hours at 33° C.; for EC50: read-out: EC50
T1 construct: host or cells: CFBE41o-, doxycycline-inducible
T1 sequence (P13569 with tags, fused parts or gaps DEL508-508): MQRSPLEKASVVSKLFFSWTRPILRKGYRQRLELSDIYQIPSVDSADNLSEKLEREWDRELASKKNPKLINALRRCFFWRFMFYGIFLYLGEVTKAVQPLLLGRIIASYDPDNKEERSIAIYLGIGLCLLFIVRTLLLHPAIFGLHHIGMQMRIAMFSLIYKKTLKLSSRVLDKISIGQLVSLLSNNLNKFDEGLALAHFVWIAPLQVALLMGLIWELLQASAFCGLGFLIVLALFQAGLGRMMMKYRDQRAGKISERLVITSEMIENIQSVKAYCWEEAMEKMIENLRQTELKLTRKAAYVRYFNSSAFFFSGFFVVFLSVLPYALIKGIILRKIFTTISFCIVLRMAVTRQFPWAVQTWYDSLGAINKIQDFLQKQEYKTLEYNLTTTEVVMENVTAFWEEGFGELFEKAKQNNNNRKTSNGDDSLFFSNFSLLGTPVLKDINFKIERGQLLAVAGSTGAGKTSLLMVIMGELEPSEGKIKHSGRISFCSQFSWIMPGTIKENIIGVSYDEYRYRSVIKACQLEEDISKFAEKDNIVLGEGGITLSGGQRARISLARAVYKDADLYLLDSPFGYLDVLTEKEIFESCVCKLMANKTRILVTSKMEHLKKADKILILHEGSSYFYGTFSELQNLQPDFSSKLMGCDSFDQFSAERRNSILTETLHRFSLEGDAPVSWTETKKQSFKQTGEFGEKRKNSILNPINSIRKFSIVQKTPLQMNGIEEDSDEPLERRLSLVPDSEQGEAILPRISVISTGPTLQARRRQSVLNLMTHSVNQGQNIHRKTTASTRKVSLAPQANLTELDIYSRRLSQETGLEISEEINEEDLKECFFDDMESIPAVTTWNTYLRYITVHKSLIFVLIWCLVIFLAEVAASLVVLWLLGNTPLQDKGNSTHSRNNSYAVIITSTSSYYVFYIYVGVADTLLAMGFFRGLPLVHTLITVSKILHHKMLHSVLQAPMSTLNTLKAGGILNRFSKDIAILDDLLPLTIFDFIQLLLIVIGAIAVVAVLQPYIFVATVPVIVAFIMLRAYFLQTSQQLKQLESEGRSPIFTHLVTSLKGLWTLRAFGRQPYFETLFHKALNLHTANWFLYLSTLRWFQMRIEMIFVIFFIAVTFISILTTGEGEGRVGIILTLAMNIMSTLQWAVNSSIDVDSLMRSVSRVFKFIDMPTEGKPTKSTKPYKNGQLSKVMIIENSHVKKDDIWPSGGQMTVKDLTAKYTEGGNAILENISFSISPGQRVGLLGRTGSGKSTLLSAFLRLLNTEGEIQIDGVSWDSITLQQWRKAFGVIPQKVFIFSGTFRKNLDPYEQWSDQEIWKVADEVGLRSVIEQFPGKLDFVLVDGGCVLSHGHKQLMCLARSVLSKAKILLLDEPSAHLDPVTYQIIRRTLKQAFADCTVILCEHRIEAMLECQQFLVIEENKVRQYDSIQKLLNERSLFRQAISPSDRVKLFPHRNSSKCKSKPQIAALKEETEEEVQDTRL
Method in brief: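 Surface ΔF508-CFTR was measured as HRP chemiluminescence from an extracellular-loop-4 tag, expressed as percent activity between DMSO and a […] corrector control.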

ΔF508-CFTR [2] = biological target: T1, ΔF508-CFTR; test: CFTR cell surface levels using HRP-tagged ΔF508-CFTR expressing CFBE cells, in the presence of a co-corrector; assay type: cell-based; settings: HRP-tagged ΔF508-CFTR CFBE cells, in the presence of 3 μM co-corrector; for EC50: read-out: EC50
Method in brief: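 Chemiluminescent read-out of surface HRP (15 min, dark) after PBS washes. Activity is normalized as 100×(sample−DMSO)/(3 μM co-corrector alone−DMSO).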

| SMILES | % Activation (ΔF508-CFTR [1]) | EC50 (ΔF508-CFTR [1]) | % Activation (ΔF508-CFTR [2]) | EC50 (ΔF508-CFTR [2]) |
| --- | --- | --- | --- | --- |
| CS(=O)(=O)NC(=O)c1cc(-c2ccc(N3CCC(C#N)CC3)nc2)c2c(C3CC(F)(F)C3)nn(-c3ccccc3)c2n1 [Compound 195, 4-[6-(4-cyanopiperidin-1-yl)pyridin-3-yl]-3-(3,3-difluorocyclobutyl)-N-(methanesulfonyl)-1-phenyl-1H-pyrazolo[3,4-b]pyridine-6-carboxamide] | 225.2% | 370 nM | 387.47% | 192 nM |
| CC1(C)CC(c2nn(-c3ccccc3)c3nc(C(=O)NS(C)(=O)=O)cc(-c4ccc(N5CCC(C#N)CC5)nc4)c23)C1 [Compound 196, 4-[6-(4-cyanopiperidin-1-yl)pyridin-3-yl]-3-(3,3-dimethylcyclobutyl)-N-(methanesulfonyl)-1-phenyl-1H-pyrazolo[3,4-b]pyridine-6-carboxamide] | 188.47% | 339 nM | 387.1% | 231 nM |
| CS(=O)(=O)NC(=O)c1cc(-c2ccc(N3CCC(C#N)CC3)nc2)c2c(C3CC(F)C3)nn(-c3ccccc3)c2n1 (stereo not drawn) [Compound 197, 4-[6-(4-cyanopiperidin-1-yl)pyridin-3-yl]-3-(3-fluorocyclobutyl)-N-(methanesulfonyl)-1-phenyl-1H-pyrazolo[3,4-b]pyridine-6-carboxamide] | 220.2% | 397 nM | 390.8% | 194 nM |
| CS(=O)(=O)NC(=O)c1cc(N2CCC3(C2)CC3(F)F)c2c(C3CCC3)nn(-c3ccccc3)c2n1 (stereo not drawn) [Compound 202, 3-cyclobutyl-4-(1,1-difluoro-5-azaspiro[2.4]heptan-5-yl)-N-(methanesulfonyl)-1-phenyl-1H-pyrazolo[3,4-b]pyridine-6-carboxamide] | 147.23% | 595 nM | 299.4% | 255 nM |
| CS(=O)(=O)NC(=O)c1cc(N2CC3(CCCCO3)C2)c2c(C3CCC3)nn(-c3ccccc3)c2n1 [Compound 203, 3-cyclobutyl-N-(methanesulfonyl)-4-(5-oxa-2-azaspiro[3.5]nonan-2-yl)-1-phenyl-1H-pyrazolo[3,4-b]pyridine-6-carboxamide] | 82.59% | 1020 nM | 224.63% | 328 nM |
| CS(=O)(=O)NC(=O)c1cc(N2CC3(CCOCC3)C2)c2c(C3CCC3)nn(-c3ccccc3)c2n1 [Compound 204, 3-cyclobutyl-N-(methanesulfonyl)-4-(7-oxa-2-azaspiro[3.5]nonan-2-yl)-1-phenyl-1H-pyrazolo[3,4-b]pyridine-6-carboxamide] | 117.6% | 978 nM | 288.6% | 490 nM |
| CS(=O)(=O)NC(=O)c1cc(N2CCCC3(CC3)C2)c2c(C3CCC3)nn(-c3ccccc3)c2n1 [Compound 205, 4-(5-azaspiro[2.5]octan-5-yl)-3-cyclobutyl-N-(methanesulfonyl)-1-phenyl-1H-pyrazolo[3,4-b]pyridine-6-carboxamide] | 208.5% | 956 nM | 416.4% | 856 nM |
| COCCN(C)c1cc(C(=O)NS(C)(=O)=O)nc2c1c(C1CCC1)nn2-c1ccccc1 [Compound 206, 3-cyclobutyl-N-(methanesulfonyl)-4-[(2-methoxyethyl)(methyl)amino]-1-phenyl-1H-pyrazolo[3,4-b]pyridine-6-carboxamide] | 169.03% | 1400 nM | 387.03% | 890 nM |
| COC1CCN(c2cc(C(=O)NS(=O)(=O)C3CCN(C(=O)OCc4ccccc4)CC3)nc3c2c(C2CCC2)nn3-c2ccccc2)CC1 [Compound 208, benzyl 4-{[3-cyclobutyl-4-(4-methoxypiperidin-1-yl)-1-phenyl-1H-pyrazolo[3,4-b]pyridine-6-carbonyl]sulfamoyl}piperidine-1-carboxylate] | 190.55% | 402 nM | 419.15% | 364 nM |
| CS(=O)(=O)NC(=O)c1cc(-c2ccc(N3CCC(C#N)CC3)nc2)c2c(n1)n(-c1ccccc1)nc2[C@H]1C[C@@H](F)C1 [Compound 209, 4-[6-(4-cyanopiperidin-1-yl)pyridin-3-yl]-3-(cis-3-fluorocyclobutyl)-N-(methanesulfonyl)-1-phenyl-1H-pyrazolo[3,4-b]pyridine-6-carboxamide] | 247.6% | 381 nM | 393.6% | 231 nM |
| CS(=O)(=O)NC(=O)c1cc(-c2ccc(N3CCC(C#N)CC3)nc2)c2c(n1)n(-c1ccccc1)nc2[C@H]1C[C@H](F)C1 [Compound 210, 4-[6-(4-cyanopiperidin-1-yl)pyridin-3-yl]-3-(trans-3-fluorocyclobutyl)-N-(methanesulfonyl)-1-phenyl-1H-pyrazolo[3,4-b]pyridine-6-carboxamide] | 205.57% | 286 nM | 390.57% | 174 nM |
| CO[C@H]1CC[C@@H](Oc2cc(C(=O)NS(C)(=O)=O)nc3c2c(C2CCC2)nn3-c2ccccc2)CC1 [Compound 211, 3-cyclobutyl-N-(methanesulfonyl)-4-[(cis-4-methoxycyclohexyl)oxy]-1-phenyl-1H-pyrazolo[3,4-b]pyridine-6-carboxamide] | 114.4% | 608 nM | 288.3% | 293 nM |
| CO[C@H]1CC[C@H](Oc2cc(C(=O)NS(C)(=O)=O)nc3c2c(C2CCC2)nn3-c2ccccc2)CC1 [Compound 212, 3-cyclobutyl-N-(methanesulfonyl)-4-[(trans-4-methoxycyclohexyl)oxy]-1-phenyl-1H-pyrazolo[3,4-b]pyridine-6-carboxamide] | 114.63% | 621 nM | 290.43% | 324 nM |
| CS(=O)(=O)NC(=O)c1cc(N2CCC(COCc3ccccc3)CC2)c2c(C3CCC3)nn(-c3ccccc3)c2n1 [Compound 213, 4-{4-[(benzyloxy)methyl]piperidin-1-yl}-3-cyclobutyl-N-(methanesulfonyl)-1-phenyl-1H-pyrazolo[3,4-b]pyridine-6-carboxamide] | 267.5% | 546 nM | 469.6% | 337 nM |
| CS(=O)(=O)NC(=O)c1cc(N2CC3(CCC3)C2)c2c(C3CCC3)nn(-c3ccccc3)c2n1 [Compound 214, 4-(2-azaspiro[3.3]heptan-2-yl)-3-cyclobutyl-N-(methanesulfonyl)-1-phenyl-1H-pyrazolo[3,4-b]pyridine-6-carboxamide] | 103.6% | 1010 nM | 250.55% | 384 nM |
| CC(=O)N1CCC2CN(c3cc(C(=O)NS(C)(=O)=O)nc4c3c(C3CCC3)nn4-c3ccccc3)CCC21 (stereo not drawn) [Compound 216, 4-(1-acetyloctahydro-5H-pyrrolo[3,2-c]pyridin-5-yl)-3-cyclobutyl-N-(methanesulfonyl)-1-phenyl-1H-pyrazolo[3,4-b]pyridine-6-carboxamide] | 275.67% | 766 nM | 456.1% | 300 nM |
| COC1CCN(c2cc(C(=O)NS(C)(=O)=O)nc3c2c(C(C)C)nn3-c2cccc(N3CCOCC3)n2)CC1 [Compound 217, N-(methanesulfonyl)-4-(4-methoxypiperidin-1-yl)-1-[6-(morpholin-4-yl)pyridin-2-yl]-3-(propan-2-yl)-1H-pyrazolo[3,4-b]pyridine-6-carboxamide] | 246.77% | 458 nM | 418.27% | 257 nM |
| COCC1CCN(c2cc(C(=O)NS(C)(=O)=O)nc3c2c(C(C)C)nn3C2CCCCC2)CC1 [Compound 218, 1-cyclohexyl-N-(methanesulfonyl)-4-[4-(methoxymethyl)piperidin-1-yl]-3-(propan-2-yl)-1H-pyrazolo[3,4-b]pyridine-6-carboxamide] | 268.37% | 390 nM | 476.9% | 239 nM |
| CS(=O)(=O)NC(=O)c1cc(N2CCC(CF)CC2)c2c(C3CCC3)nn(-c3ccccc3)c2n1 [Compound 220, 3-cyclobutyl-4-[4-(fluoromethyl)piperidin-1-yl]-N-(methanesulfonyl)-1-phenyl-1H-pyrazolo[3,4-b]pyridine-6-carboxamide] | 202.5% | 348 nM | 389.9% | 208 nM |
| CS(=O)(=O)NC(=O)c1cc(N2CCC3(CCCCC3)CC2)c2c(C3CCC3)nn(-c3ccccc3)c2n1 [Compound 222, 4-(3-azaspiro[5.5]undecan-3-yl)-3-cyclobutyl-N-(methanesulfonyl)-1-phenyl-1H-pyrazolo[3,4-b]pyridine-6-carboxamide] | 65.685% | 1420 nM | 247.3% | 1790 nM |
| CCS(=O)(=O)NC(=O)c1cc(-c2ccc(N3CCOCC3)cc2)c2c(C(C)C)nn(-c3ccc(F)c(F)c3)c2n1 [Compound 223, 1-(3,4-difluorophenyl)-N-(ethanesulfonyl)-4-[4-(morpholin-4-yl)phenyl]-3-(propan-2-yl)-1H-pyrazolo[3,4-b]pyridine-6-carboxamide] | 258.95% | 469 nM | 438.2% | 371 nM |
